Where two headings read alike, the source gives them in different places.
Legend:
EcOMT1 = test system: T1, EcOMT1; test: methyltransferase assay, RP-HPLC of pinostrobin formed, Michaelis-Menten fit; type: biochemical, Eucalyptus croajingolensis; details: crude recombinant E. coli extract; SAM; 50 mM potassium phosphate pH 7, 30 °C; read-out: apparent Km app
T1 construct: gene OMT1; full-length

EnOMT1 = test system: T2, EnOMT1; test: as above; type: biochemical, Eucalyptus nitida; details: crude recombinant E. coli extract, 50 mM potassium phosphate pH 7, 30 °C, read-out: apparent Km
T2 construct: gene OMT1; full-length, 349 residues; E. coli BL21 (DE3)

EmOMT1 = test system: T3, EmOMT1; test: methyltransferase assay, RP-HPLC, extrapolated non-linear regression; type: biochemical, Eucalyptus mitchelliana; details: crude recombinant E. coli extract, SAM, 50 mM potassium phosphate pH 7, 30 °C, 16 h incubation needed for product, read-out: apparent Km
T3 construct: gene OMT1; full-length

| SMILES | Km (EcOMT1) | Km (EnOMT1; 100 μM SAM, kcat from His-affinity purified enzyme) | Km (EmOMT1) | Km (EnOMT1; 50 μM pinocembrin, methyl donor) |
| --- | --- | --- | --- | --- |
| O=C1C[C@@H](c2ccccc2)Oc2cc(O)cc(O)c21 [pinocembrin] | 2.55 ± 0.38 µM | 2.05 ± 0.16 µM | > 800 µM |  |
| C[S+](CC[C@H](N)C(=O)O)C[C@H]1O[C@@H](n2cnc3c(N)ncnc32)[C@H](O)[C@@H]1O (stereo partly shown) [S-adenosylmethionine] |  |  |  | 4.99 ± 0.29 µM |

From PMC8954846, “Molecular Characterisation of Flavanone O-methylation in Eucalyptus” (International Journal of Molecular Sciences, 2022)
